{
  "source": "patent US10022451B2",
  "about": "“Encapsulated agents and methods of making and using thereof” (University of Georgia Research Foundation, Inc., priority 2014, dated 2018)",
  "key": {"[1]": {"settings": "in tetrahydrofuran; cited from earlier work"}, "[2]": {"test": "Stability of P-RFRTs in PBS and at pH 2", "format": "physicochemical", "settings": "same concentration"}},
  "data": [
    {"substance": "zinc hexadecafluoro-phthalocyanine [ZnF16Pc]", "values": [
      {"measurement": "ΦΔ", "setting": "[1]", "result": 0.85},
      {"measurement": "Stability in PBS", "setting": "[2]", "result": "quickly precipitated out due to its poor solubility"}
    ]}
  ]
}
